From a melting point compilation (Tetko et al.; mined from patent text by program, amines drawn as free bases though some values may be those of a salt)

melting point [°C] | Compound
128 to 130 | O=C(c1c(F)cccc1F)N1CSCN(c2ccc(Cl)cc2)C1=O
150 to 152 | COc1ccc(C2=NN(C3CCN(S(=O)(=O)c4cccc(C)c4)CC3)C(=O)C(C)(C)C2)cc1OC
152 to 154 | O=C1c2ccccc2C(=O)N1CC(O)COc1cccc2ccccc12 (configuration not stated)
146 to 147 | O=C1CC2CSc3ccccc3C2=NN1c1ccc(Cl)cc1 (configuration not stated)
66 | Cc1ccc(-c2cc(C=O)ccn2)cc1
159 to 160 | Cc1oc(-c2ccccc2)nc1COc1ccc2cc(CCCC3OC(=O)NC3=O)oc2c1 (configuration not stated)
80 to 81 | COc1ccc(CC(=O)c2ccccc2)cc1OC
206 to 209 | COc1ccc(Cc2cnc(N)nc2N)cc1
153 to 155 | Cc1cc(Cc2ccsc2)c(NC(=O)OCc2ccccc2)c(=O)n1CC(=O)O
105 to 106 | CC(C)=CCCC(C)=CCOc1ccc(C(=O)NCC(=O)Nc2ccccn2)cc1
167 to 168 | CCN(CC)CCNc1nc2cccnc2n(-c2ccc(OC)cc2)c1=O
167 to 170 | CCCCn1c(=O)cc(NN)n(Cc2ccc(OC)cc2)c1=O
257 to 259 | Cc1cn(-c2nccc3[nH]c(=O)ccc23)cn1
218 to 220 | COc1ccc(Nc2nc(-c3ccccc3)cc(N3CCC(OC(=O)CCC(=O)O)CC3)n2)cc1Cl
140 to 141 | O=C(NCCc1cccc2ccc(O)cc12)C1CC1
163 to 166 | Cc1ccc(C(=O)N2CCCC(c3ccc(Cl)cc3)=N2)cc1
278 to 280 | O=C1NC(C(Cl)(Cl)Cl)Nc2ccc([N+](=O)[O-])cc21 (configuration not stated)
285 | CC1SC(=O)NN=C1c1ccc2c(c1)C(=Cc1cccnc1)C(=O)N2 (configuration not stated)
199 to 200 | c1cncc(-c2ccc3nncn3n2)c1
170 to 175 | COc1cc(-n2nc(Cl)cc2-c2ccc(S(C)(=O)=O)cc2)ccc1[N+](=O)[O-]
153 to 155 | O=C(NCc1cccnc1)c1ccnc(N2CCN(Cc3ccc(F)cc3)C2=O)c1
202 to 204 | O=C(O)C(=O)c1ccc(OCCCn2c(=O)c3ccccc3c3ccccc32)cc1
220 to 221 | CCCc1nc2cccc(C(=S)OC)c2n1Cc1ccc(-c2ccccc2-c2nc(=O)o[nH]2)cc1
153 to 155 | Cn1ncc(CN2C(=O)c3ccccc3C2=O)c1-c1ccc(Cl)cc1C(=O)c1ccccc1F
276 to 278 | Cc1cc2[nH]c(=O)ccc2c(Br)n1
63 | CN1CCCC1=Cc1ccc(Cl)cc1
143 to 145 | CCN1C(=O)C(C)(C)C(=O)N(C)c2cc(CN(CCn3ccc4oc(C)cc4c3=O)Cc3ccncc3)ccc21

melting point [°C] | Compound
218 to 221 | CN(C)CCNC(=O)c1cn(C)c(=O)c2cc3cccnc3nc12
206 | CCCCn1c(C)c(C2(c3c(C)n(CCCC)c4ccccc34)NNC(=O)c3ccccc32)c2ccccc21
59 to 60 | Cc1cccc(-c2ccc([N+](=O)[O-])cc2)c1
245 to 248 | O=Cc1ccc(OC(F)F)c2oc3ccc([N+](=O)[O-])cc3c12
142 | COc1ccc(C2=C(C=O)c3ccc(OC)cc3CC2)cc1
118 to 120 | Cc1cc(=O)c(OCc2ccccc2)c(C(=O)NC2CCCCC2)o1
128 to 132 | COc1ccc(OC)c(-c2cccc3c2OC(CN)C3)c1 (configuration not stated)
116 to 117 | N=C(N)NCCc1ccc(OCCC2Oc3ccccc3N(Cc3cc(Cl)cc(Cl)c3)C2=O)cc1 (configuration not stated)
207 to 209 | CC(C)(C)[Si](C)(C)Oc1ccc2c(N3C(=O)c4ccccc4C3=O)n[nH]c2c1
125 to 130 | CN(C)CCNc1ccc(O)c2c1C(=O)c1c(Cl)ccc(Cl)c1C2=O
102 | COC(=O)CCCc1cc2nc(Cl)ccc2n1S(=O)(=O)c1ccc(Br)cc1
106 to 108 | CCN(CC)CCNC(=O)c1c(I)ccc2c1Nc1ccccc1C2
72 to 73 | ClCc1coc(/C=C/c2ccccc2)n1
> 270 | O=C1OCC2=C1C(c1ccccc1Cl)c1c[nH]nc1N2 (configuration not stated)
154 to 155 | CCCCc1c(C(=O)O)ccc2c(OC)cccc12
135 to 137 | CC(C)NCC#CC1(O)c2ccccc2-c2ccccc21
63 to 65 | COC(=O)c1nc(Cl)sc1-c1ccccc1
202 to 204 | CC(C)n1nc(-c2c(NC(C)(C)C)nc(N)nc2-c2ccccc2)ccc1=O
222 to 224 | O=c1ccn2c(n1)COc1ccc(Cl)cc1-2
129 to 131 | Cc1cnc(-c2ccc(CBr)cc2)nc1
110 to 112 | CCOC(=O)c1ccc(-c2coc(-c3ccccc3)n2)cc1
161 to 162 | CC(C)Nc1cccnc1N1CCN(C(=O)c2ccc(C(=O)NC(C)(C)C)cn2)CC1
70.4 | N#CC(c1ccccc1)c1ccc([N+](=O)[O-])cc1C(F)(F)F (configuration not stated)
196 to 197 | Clc1ccccc1-c1nc(-c2ccccc2)c(-c2ccccc2)[nH]1
67 to 68 | c1cncc(-c2nc(COc3ccc(CCCn4ccnc4)cc3)cs2)c1
130 to 131 | Cn1ccnc1COc1cc(Oc2ccc(S(C)(=O)=O)cc2)cc2cc(C3=NCC(CC(N)=O)S3)[nH]c12 (configuration not stated)
222 to 224 | Cc1nc(N2CCCC2=O)sc1C(=O)NCc1ccccc1

Further lines, the molecule ahead of its results:

Compound | melting point [°C]
O=C(CC1CCN(Cc2ccccc2)CC1)Nc1noc(C2CN3CCC2CC3)n1 (configuration not stated) | 133 to 134
C=CC(=O)NCC(C(C)=O)C(=O)c1ccccc1 (configuration not stated) | 125 to 126
COc1ccc(OC)c(C2CC=CCC2[N+](=O)[O-])c1 (configuration not stated) | 73 to 75
CCOC1=CCC(NC(C)=O)CC1 (configuration not stated) | 100 to 102
CCOC(=O)c1c(CN2CCCCC2)nc2cc(OC)c(OC)cc2c1-c1ccc(OC)c(OC)c1 | 148 to 149
O=C(CCNC(=O)[C@H](Cc1ccccc1)OP(=O)(O)CCCCc1ccccc1)OCc1ccccc1 | 64 to 70
COC(=O)CC(=O)N1CCC(c2ccc(OC)c(OC3CCCC3)c2)CC1 | 78 to 79
CCOC(=N)CC1(C)OCCc2c1[nH]c1ccccc21 (configuration not stated) | 140 to 141
OC1(C2CCN(Cc3ccccc3)CC2)c2ccsc2CCn2ccnc21 (configuration not stated) | 189
COC(=O)CC/C(C)=C/Cc1c(O)c2c(c(C)c1OC)COC2=O | 104 to 105
O=C(O)CCCC#CCc1c(-c2ccccc2)nc(-c2ccccc2)n1-c1ccccc1 | 144 to 145
N#CCNC(=O)c1ccc([N+](=O)[O-])cc1 | 147 to 149
O=C(C=Cc1ccccc1)C(Cc1ccccc1)(Cc1ccccc1)C(=O)C=Cc1ccccc1 | 182 to 183
C#CCC(Oc1cccc(C)c1C)C1=NCCN1 (configuration not stated) | 70 to 73
CN(C)C=CC(=O)c1ccc(I)cc1 | 117 to 118
COC(=O)c1cc([N+](=O)[O-])ccc1CS(N)(=O)=O | 167 to 170
FC(F)C(F)(F)Oc1ccc(C=NNc2nc(Nc3ccc(OC(F)(F)F)cc3)nc(N3CCOCC3)n2)cc1 | 203 to 206
O=C(OCC(Cn1cnc2c(Cl)nc3ccccc3c21)OC(=O)c1ccccc1)c1ccccc1 (configuration not stated) | 162 to 165
COc1ccc(C(=O)O)cc1NC(=O)c1cc(C(C)(C)C)c(O)c(C(C)(C)C)c1 | 259 to 261
N#CC(C#N)=C1N(CCN2CCCCC2)c2ccccc2N1CCN1CCCCC1 | 127 to 128
CCOC(=O)C1CCC2(NCCc3cc(OC)c(OC)cc32)C(C2c3cc(OC)c(OC)cc3CCN2CC)C1 (configuration not stated) | 140 to 142
CC1(C)C2CC[C@]1(C)C(=O)C(C(=O)Nc1ccc(Cl)c(C(F)(F)F)c1)C2=O (some centres not stated) | 118 to 120
Oc1cc(=S)sc2cccc(C(F)(F)F)c12 | 142 to 144
COC(=O)CCc1cccc(Cl)c1C(=O)CCCNC(C)=O | 51 to 52

Compound | melting point [°C]
CCC(=O)OCC1OC(n2cnc3c(OC)nc(N)nc32)C(O)C1O (configuration not stated) | 124
CC(=O)n1c(=O)n(CCCN2CCN(C(c3ccccc3)c3ccccc3)CC2)c2ccccc21 | 124
CCCCCCCCCCOc1cc(N=Nc2ccccc2)ccc1OCC1CC1 | 58 to 60
CON(C)C(=O)Nc1ccc(OCc2nc(Cl)ccc2Cl)cc1 | 152 to 154
OCC1CCC(N2CCC(=C3c4ccc(F)cc4Sc4ccc(C(F)(F)F)cc43)CC2)CC1 (configuration not stated) | 208 to 211
O=C1Nc2ccc(Br)cc2C(c2ccccc2F)=NC1O (configuration not stated) | 196 to 198
CCCCOC(=O)C=C(C)C=CC=C(C)C=Cc1c(C)cc(C)c([N+](=O)[O-])c1C | 205 to 206
CCn1ncc2c1NC(=O)CC2C(F)(F)F (configuration not stated) | 129 to 130
O=C(Nc1ccc(Cl)c(Cl)c1)c1cc(C(F)(F)F)cc([N+](=O)[O-])c1N1CCCCC1 | 144
CCCCCCCCCCn1c(C)cc(C)c(C#N)c1=O | 82 to 83
CCOC(=O)c1cc(Br)c(C(=O)OCC)cc1Cl | 125
Cc1nc(O)c(Br)cc1Br | > 225
COCc1nc2c(N)nc3cc(CCS(C)(=O)=O)ccc3c2n1CC(C)(C)O | 210 to 212
Cc1cc(C(C)(C)CO)c(Cl)nn1 | 151 to 153
Cc1ccc(S(=O)(=O)C(C)(C)C(=O)C(C)C)cc1 | 76 to 79
O=C(O)c1cncn1C(C1CCCCC1)C1CCCCC1 | 253
CN(C)CCNC(=O)C(=O)c1ccc(OCCOc2ccc3ccccc3c2)cc1 | 102 to 104
COC(=O)c1ccc(OC2CCOC2=O)c([N+](=O)[O-])c1 (configuration not stated) | 99 to 101
Cc1ccc([N+](=O)[O-])cc1NC(N)=S | 164 to 166
COC(=O)C(=O)c1cc2cc(C#N)ccc2o1 | 196 to 199
CNC(=NS(=O)(=O)c1ccc(C)cc1)NCCSCc1[nH]cnc1C | 138
COc1cccc(CNc2ncnc3c2sc2nc(N4CCCC4)c4c(c23)CC(C)(C)OC4)c1OC | 166 to 168
O=C(Nc1cc(CN2CCCCC2)c(O)c(CN2CCCCC2)c1)c1ccccc1 | 138 to 140
CCCNC(=S)NCCc1cccc2ccc(OC)cc12 | 95 to 97
